Read-outs that look alike come from different tables or passages of the source.
Experiments:
[1] = molecular target: T1, STAT3 (Homo sapiens, UniProt P40763); assay: IL-6 / OSM induced STAT3 phosphorylation in SJSA cells, Western blot; type: cell-based; design: endogenous in cells; settings: LY5 two hours then 50 ng/mL cytokine 30 minutes
Protocol: (§1) Cell lysis, protein isolation and immunoblotting were performed as described previously. Twenty micrograms of protein were resolved using 4–12% Bis-Tris polyacrylamide gels. Gels were transferred to PVDF membranes and subjected to blocking and incubation with primary and secondary antibodies. The primary antibodies used in this study included: phospho-STAT3 (Tyr705, Cell Signaling, Boston, MA and Abcam, Cambridge, MA), total STAT3 (Cell Signaling and Abcam), phospho-STAT1 (Cell Signaling), total STAT1 (Cell Signaling), phospho-STAT2 (Cell Signaling), phospho-STAT4 (Cell Signaling), phospho-STAT6 (Cell Signaling), and GAPDH (Cell Signaling). Protein bands were detected using Western Lightning ® Plus Enhanced Chemiluminescence substrate (Perkin Elmer, Waltham, MA) and HyBlot CL ® Autoradiography film (Denville Scientific, Holliston, MA). The cytokines used in this study included: interferon gamma (IFN-γ, Cell Signaling), interferon alpha (IFN-α, Cell Signaling), interleukin-4 (IL-4, Cell Signaling), interleukin-6 (IL-6, Cell Signaling), and oncostatin M (OSM, Cell Signaling).
(§2) Fig 1 LY5 inhibits pSTAT3 in sarcoma cell lines. (A) The tumor cell lines RH30, EW8, and RD were treated with increasing concentrations of LY5 for 30 minutes. Cell lysates were collected for Western blotting of p-STAT3, total STAT3, and GAPDH. GAPDH was used as loading control. […]

[2] = system: K7M2 cells; assay: Ex vivo pulmonary metastasis assay (PuMA); type: cell-based, murine; settings: K7M2, 10 μM LY5 only
Protocol: GFP-positive K7M2 and MG63.3 cells (3 x 10^5 MG63.3; 5 x 10^5 K7M2) were administered via tail vein injection into mice. Following humane euthanasia, the lungs were insufflated with a culture medium/agarose mixture to a constant hydrostatic pressure of 20 cm H2O and prepared for ex vivo culture as previously described. Lung sections were cultured in complete media containing LY5 (0, 0.1, 1, 10 or 50 μM) on sterile Gelfoam using 6 lung sections per treatment condition. Media was changed every 48 hrs and lung slices were imaged with a fluorescent microscope every 7 days for a total of 21 days.
MG63.3 and K7M2 cell lines were exposed to increasing concentrations of LY5 to determine the IC50 (A). Western blot analysis was performed to determine the dose and duration of LY5 exposure required to inhibit STAT3 phosphorylation (B-C). Serial imaging of fluorescently labeled MG63.3 and K7M2 cells was performed in ex vivo LY5 treated lung sections (D). Metastatic burden was quantified by evaluation of the percent tumor burden (mean normalized fluorescent area). Data are reported as the mean ± standard deviation. In MG 63.3 experiment, p < 0.0001 Kruskal-Wallis test, p < 0.05 10 μM vs control at days 7, 14, and 21, 10 μM vs 1 μM at days 7, 14, and 21, 50 μM vs control at days 7, 14, and 21, and 50 μM vs 10 μM at days 7, 14, and 21 post-test Dunn. […]

[3] = molecular target: T2, STAT4 (Homo sapiens, UniProt Q14765); assay: Cytokine-induced STAT4 phosphorylation in SJSA cells, Western blot; type: cell-based; settings: induced by IFN-γ, IFN-α, or IL-4
T2 construct: endogenous in cells; host or cells: SJSA
T2 sequence (Q14765 whole entry): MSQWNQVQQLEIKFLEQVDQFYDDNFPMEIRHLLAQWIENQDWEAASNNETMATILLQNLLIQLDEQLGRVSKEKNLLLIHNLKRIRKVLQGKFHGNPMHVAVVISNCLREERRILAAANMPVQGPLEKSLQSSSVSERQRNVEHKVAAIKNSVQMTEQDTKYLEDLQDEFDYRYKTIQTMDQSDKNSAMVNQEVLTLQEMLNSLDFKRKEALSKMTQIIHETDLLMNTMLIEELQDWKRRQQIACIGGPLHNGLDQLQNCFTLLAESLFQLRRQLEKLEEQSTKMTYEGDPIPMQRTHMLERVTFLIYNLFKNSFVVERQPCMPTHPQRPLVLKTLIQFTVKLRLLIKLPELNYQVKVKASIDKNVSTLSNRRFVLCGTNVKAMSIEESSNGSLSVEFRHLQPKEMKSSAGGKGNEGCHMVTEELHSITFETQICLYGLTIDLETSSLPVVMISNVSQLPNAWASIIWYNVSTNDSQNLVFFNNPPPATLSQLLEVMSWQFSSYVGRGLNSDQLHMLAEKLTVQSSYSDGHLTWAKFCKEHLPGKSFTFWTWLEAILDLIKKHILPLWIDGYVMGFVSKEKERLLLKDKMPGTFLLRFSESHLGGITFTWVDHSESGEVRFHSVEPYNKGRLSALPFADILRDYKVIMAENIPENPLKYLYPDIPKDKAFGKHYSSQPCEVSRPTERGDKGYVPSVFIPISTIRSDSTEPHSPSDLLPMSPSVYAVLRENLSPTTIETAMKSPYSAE
Protocol: as §1, §2

[4] = molecular target: T1, STAT3; assay: STAT3 phosphorylation in OS-1 PDX tumors; type: in vivo, mice; design: from tissue; host or cells: OS-17-luc lung metastases and OS-1 subcutaneous PDX tumours in C.B-17 scid mice; settings: 40 mg/kg twice daily, tumors harvested 2 hrs after final drug administration
Protocol: To further examine the efficacy of LY5, we administered LY5 using subcutaneous PDX models of RMS (RH10 and RH36) and OS (OS-17 and OS-1). RH10, RH36 and OS-1 were derived from tissue explants, therefore no corresponding cell lines exist. Tumors were harvested 2 hrs after final drug administration. […] In addition, STAT3 phosphorylation was not observed in control or treated tumor derived from OS-17, and inhibition of STAT3 phosphorylation was not observed in OS-1 PDX models treated with 40 mg/kg twice daily.

[5] = Plasma PK profile in mice; type: in vivo; settings: ICR, mouse; for AUC(0-inf): read-out: AUC inf-obs; for bioavailability: read-out: F (bioavailability)
Protocol: Single-dose toxicity studies in mice were performed to identify the maximum tolerated dose of LY5. Additionally, 30 ICR mice (Harlan Laboratories, Indianapolis, IN) were divided into 3 groups to be dosed with 5 mg/kg LY5 (2 mg/ml) by oral (PO), intraperitoneal (IP) or intravenous (IV) routes to establish oral bioavailability. Animals were euthanized and blood was collected at allocated time points (5, 10, 20, 30 and 60 minutes, 2, 4, 6, 8 and 24 hrs) after LY5 administration, plasma was separated by centrifugation and frozen immediately on dry ice. Samples were stored at -80° C prior to analysis.
The liquid chromatography-mass spectrometry system utilized for these analyses consisted of a Dionex Ultimate 3000 RSLCnano High Performance Liquid Chromatography system and a Thermo Finnigan Quantum Ultras EMR mass spectrometer with an electrospray ionization source. Positive ionization mode was used for both LY5 and the internal standard, hesperetin. Plasma samples were collected and analyzed by the OSU James Comprehensive Cancer Center Pharmacoanalytical Shared Resource. Pharsight Phoenix WinNonlin software using non-compartmental analysis was used to generate PK parameters including maximum plasma concentration (Cmax), amount of time that drug is present at Cmax (Tmax), and total area under the curve (AUC). AUC all and AUC last were calculated by linear trapezoidal method of concentration-time curve up to the last measured point. AUC inf-obs was calculated by log-linear extrapolation of the terminal phase beyond the last collection time. Bioavailability (F) was calculated for IP and PO administration routes. Plasma stability and liver microsomal stability of LY5 were also assessed through this shared resource.

T1 sequence (P40763 whole entry): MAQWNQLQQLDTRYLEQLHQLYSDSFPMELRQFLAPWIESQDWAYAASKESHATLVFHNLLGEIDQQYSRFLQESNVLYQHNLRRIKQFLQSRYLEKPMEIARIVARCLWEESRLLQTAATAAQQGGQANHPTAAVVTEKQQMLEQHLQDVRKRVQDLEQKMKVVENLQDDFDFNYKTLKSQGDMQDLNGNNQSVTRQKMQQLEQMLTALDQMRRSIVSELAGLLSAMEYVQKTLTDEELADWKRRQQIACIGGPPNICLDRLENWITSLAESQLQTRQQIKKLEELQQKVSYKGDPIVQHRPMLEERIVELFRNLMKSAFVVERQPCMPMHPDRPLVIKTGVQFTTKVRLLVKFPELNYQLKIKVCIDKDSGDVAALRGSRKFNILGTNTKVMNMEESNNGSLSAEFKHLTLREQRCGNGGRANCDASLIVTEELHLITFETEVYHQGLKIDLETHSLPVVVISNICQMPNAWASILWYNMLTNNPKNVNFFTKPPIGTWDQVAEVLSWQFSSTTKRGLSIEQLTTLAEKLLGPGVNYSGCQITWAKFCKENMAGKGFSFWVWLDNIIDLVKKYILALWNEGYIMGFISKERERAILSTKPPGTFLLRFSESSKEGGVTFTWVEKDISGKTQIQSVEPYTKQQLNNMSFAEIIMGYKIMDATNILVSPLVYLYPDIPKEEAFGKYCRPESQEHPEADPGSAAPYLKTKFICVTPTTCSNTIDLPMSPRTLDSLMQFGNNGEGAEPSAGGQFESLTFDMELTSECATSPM

**Q.** Which “IL-6 and OSM induced STAT3 phosphorylation” value [1] does the source give for `NS(=O)(=O)c1cccc2c1C(=O)C=C(Nc1cccnc1)C2=O` [LY5, 5,8-dioxo-6-(pyridin-3-ylamino)-5,8-dihydronaphthalene-1-sulfonamide] here?
**A.** effectively blocked

**Q.** What about the “tumor burden in PuMA” value [2] of the same compound?
**A.** reduction

**Q.** And the “phosphorylation of STAT4” value [3]?
**A.** did not inhibit

**Q.** What about the “inhibition of STAT3 phosphorylation in tumors” value [4] of the same compound?
**A.** not observed

**Q.** And the AUC ([5]; 5 mg/kg IP)?
**A.** 0.717 µM·h

**Q.** And the Cmax ([5]; 5 mg/kg IP)?
**A.** 545 nM

**Q.** What about the Tmax ([5]; 5 mg/kg IP) of the same compound?
**A.** 4.98 min

**Q.** And the AUC(0-inf) ([5]; 5 mg/kg IP)?
**A.** 0.794 µM·h

**Q.** And the bioavailability ([5]; 5 mg/kg IP)?
**A.** 69.5%

**Q.** And the AUC ([5]; 5 mg/kg IV)?
**A.** 1.14 µM·h

**Q.** What about the Cmax ([5]; 5 mg/kg IV) of the same compound?
**A.** 1660 nM

**Q.** What about the Tmax ([5]; 5 mg/kg IV) of the same compound?
**A.** 4.98 min

**Q.** And the AUC(0-inf) ([5]; 5 mg/kg IV)?
**A.** 1.14 µM·h

**Q.** And the AUC ([5]; 5 mg/kg PO)?
**A.** 0.784 µM·h

**Q.** And the Cmax ([5]; 5 mg/kg PO)?
**A.** 509 nM

**Q.** What about the Tmax ([5]; 5 mg/kg PO) of the same compound?
**A.** 30 min

**Q.** What about the AUC(0-inf) ([5]; 5 mg/kg PO) of the same compound?
**A.** 0.898 µM·h

**Q.** And the bioavailability ([5]; 5 mg/kg PO)?
**A.** 78.6%

Source: publication PMC5531494, “Target specificity, in vivo pharmacokinetics, and efficacy of the putative STAT3 inhibitor LY5 in osteosarcoma, Ewing's sarcoma, and rhabdomyosarcoma” (PLoS ONE, 2017)
